Data: patent US20040254094A1, “Suppression of cyclin kinase activity for prevention and treatment of infections” (priority 2000, published 2004)
Read-outs that look alike come from different tables or passages of the source.

Columns and labels:
CDK1/cyclin B = details: cited from earlier work
Human Cytomegalovirus = test: Infectious HCMV yield by plaque assay from infected density-arrested LU cells; assay type: cell-based, Human cytomegalovirus strain AD169; details: for inhibition at 3.3 µM / inhibition at 10 µM / inhibition at 33 µM / inhibition at 100 µM: Human betaherpesvirus 5, 96 h
HCMV [1] = test: HCMV DNA abundance by slot blot hybridization in infected density-arrested LU cells; assay type: cell-based, Human cytomegalovirus strain AD169; details: 72 hr post-infection
HCMV-infected LU cells = test: Hematoxylin and eosin staining of HCMV-infected LU cells
[2] = Tolerated dose in animals; assay type: in vivo; details: printed 'tolerated by rate'
Source text: The preferred dosage of CDK inhibitor in a parenteral administration may vary, depending upon the extent of the virus infection, the severity of the symptoms associated with the infection and patient age, weight and medical history. The number of administrations of the parenteral composition of the CDK inhibitor will also vary according to the response of the individual patient to the treatment. In one exemplary application, the dosage of CDK inhibitor may vary with the type of disease and the route of administration. Further studies with animal models of infection will completely define projected doses. […] Weaker CDK2 inhibitors will be needed at higher concentrations, and stronger, at lower.

non-infected LU cells = test: Hematoxylin and eosin staining of non-infected LU cells; assay type: cell-based, human; details: 15 μM for 96 hr
human lung fibroblasts = details: 100 μg/ml (0.75 mM); cited from earlier work
LU cells = details: within 24 hr after serum in the presence of PAA (about 68% without inhibitor)
Source text: The specificity of PAA was confirmed by measuring cellular DNA content after serum stimulation of quiescent LU cells in the presence and absence of PAA.

HCMV [3] = test: Viral late antigen pp28 expression by immunofluorescence in HCMV-infected LU cells; assay type: cell-based, Human cytomegalovirus; details: between 24 and 96 hr after infection in the presence of PAA
Experimental: Cells were cultured on sterile glass coverslips. The cells were washed three times in PBS and fixed in acetone:methanol (1:1) at −20° C. for 10 min. The permeabilized cells were incubated with primary antibody diluted in PBS for 1 hr at 37° C. in a humidified chamber. […] The excess conjugate was removed by washing the cells in PBS for 30 min. After drying, the cells were mounted in PBS/glycerol (1:1) and examined with the aid of a Zeiss Photomicroscope III using a 40/1.0 Neofluar lens. Images were photographed on slide film.

[4] = system: HCMV-infected subconfluent LU cells; test: Cell cycle distribution (DNA content, flow cytometry) following HCMV infection of subconfluent LU cells; details: for Percent cells in phase G0/G1 / Percent cells in phase G2/M / Percent cells in phase S: HCMV 5 PFU/cell + PAA 100 μg/ml, mean (SD)
Experimental: The DNA content of serum-arrested, HCMV-infected, subconfluent LU cells was analyzed by flow cytometry to determine to what extent productively infected cells initiate DNA synthesis.
Next, the DNA content of LU cells as a function of time after HCMV infection of subconfluent cells in the presence of PAA was analyzed.

[5] = 10 μM (third line of each group), harvested 96 hrs
[6] = 3.3 μM, harvested 96 hrs, read-out: Percent inhibition of HCMV infectious yields
[7] = 10 μM (third line of each group), harvested 96 hrs, read-out: Percent inhibition of HCMV infectious yields
[8] = 10 μM, harvested 96 hrs, read-out: Percent inhibition of HCMV infectious yields
[9] = 33 μM, harvested 96 hrs, read-out: Percent inhibition of HCMV infectious yields
[10] = 100 μM, harvested 96 hrs, read-out: Percent inhibition of HCMV infectious yields
[11] = read-out: Percent inhibition of HCMV infectious yields, 3.3 μM, harvested 96 hrs
[12] = read-out: Percent inhibition of HCMV infectious yields, 10 μM (third line of each group), harvested 96 hrs
[13] = read-out: Percent inhibition of HCMV infectious yields, 10 μM, harvested 96 hrs
[14] = read-out: Percent inhibition of HCMV infectious yields, 33 μM, harvested 96 hrs
[15] = read-out: Percent inhibition of HCMV infectious yields, 100 μM, harvested 96 hrs

OCCCNc1cc(-c2ccnc(Nc3cccc(Cl)c3)n2)ccn1 [CGP60474]
IC50 (CDK1/cyclin B): 0.02 µM

CCCCc1c(-c2ccc(O)cc2)[nH]c2nccnc12 [RP107]
Percent inhibition of HCMV infectious yields (Human Cytomegalovirus; 3.3 μM, harvested 96 hrs): 96.67% | Percent inhibition of HCMV infectious yields (Human Cytomegalovirus; [5]): 99.98% | Percent inhibition of HCMV infectious yields (Human Cytomegalovirus; 10 μM, harvested 96 hrs): 74.67% | Percent inhibition of HCMV infectious yields (Human Cytomegalovirus; 33 μM, harvested 96 hrs): 99.9968% | Percent inhibition of HCMV infectious yields (Human Cytomegalovirus; 100 μM, harvested 96 hrs): 99.9984%

CN(C)c1ncnc2nc[nH]c12 [6-Dimethylaminopurine]
IC50 (CDK1/cyclin B): 120 µM

Cc1ccc(C(=O)Nc2ccc(S(=O)(=O)O)c3cc(S(=O)(=O)O)cc(S(=O)(=O)O)c23)cc1NC(=O)c1cccc(NC(=O)Nc2cccc(C(=O)Nc3cc(C(=O)Nc4ccc(S(=O)(=O)O)c5cc(S(=O)(=O)O)cc(S(=O)(=O)O)c45)ccc3C)c2)c1 [Suramin]
IC50 (CDK1/cyclin B): 4 µM

CN[C@@H]1C[C@H]2O[C@@](C)([C@@H]1OC)n1c3ccccc3c3c4c(c5c6ccccc6n2c5c31)C(=O)NC4 [Staurosporine]
IC50 (CDK1/cyclin B): 0.004 µM

COc1ccc(CNc2nc(N(CCO)CCO)nc3c2ncn3C(C)C)cc1 [CVT-313]
IC50 (CDK1/cyclin B): 4.2 µM

CC(C)[C@H](CO)Nc1nc(Nc2cc(N)cc(Cl)c2)c2ncn(C(C)C)c2n1 [NG97, aminopurvalanol]
inhibition at 3.3 µM (Human Cytomegalovirus; [6]): 99.9% | inhibition at 10 µM (Human Cytomegalovirus; [7]): 100% | inhibition at 10 µM (Human Cytomegalovirus; [8]): 51.3% | inhibition at 33 µM (Human Cytomegalovirus; [9]): 100% | inhibition at 100 µM (Human Cytomegalovirus; [10]): 100%

CC(C)=CCNc1ncnc2nc[nH]c12 [Isopentenyladenine]
IC50 (CDK1/cyclin B): 55 µM

N#Cc1cn([C@@H]2O[C@H](CO)[C@@H](O)[C@H]2O)c2ncnc(N)c12 [Toyocamycin]
IC50 (CDK1/cyclin B): 0.88 µM

CC[C@H](CO)Nc1nc(NCc2ccccc2)c2ncn(C(C)C)c2n1 [Roscovitine]
Infectious HCMV yields reduced by (Human Cytomegalovirus; 2.5 μM, 96 hr post-infection): > 90% | inhibition at 3.3 µM (Human Cytomegalovirus; [11]): 90.7% | inhibition at 10 µM (Human Cytomegalovirus; [12]): 96.5% | inhibition at 10 µM (Human Cytomegalovirus; [13]): 91.3% | inhibition at 33 µM (Human Cytomegalovirus; [14]): 100% | inhibition at 100 µM (Human Cytomegalovirus; [15]): > 100% | inhibition at 10 µM (Human Cytomegalovirus; read-out: inhibition of infectious HCMV yields, 10 μM, 96 hr post-infection): > 99.9% | HCMV DNA abundance reduced by (HCMV [1]; 1 μM): ~50% | viral DNA abundance reduced by (HCMV [1]; 10 μM): > 90% | morphology of HCMV-infected cells (HCMV-infected LU cells; 5 μM, 96 hr post-infection): rounded and appeared to be undergoing cell death | morphology of HCMV-infected cells (HCMV-infected LU cells; 15 μM, 96 hr after infection): clearly dying or dead | tolerated dose [2]: 3 µg/kg | morphological changes of non-infected cells (non-infected LU cells): no morphological changes

Purvalanol A&B
IC50 (CDK1/cyclin B): 0.004 µM

Cc1c2ccncc2c(C)c2c1[nH]c1ccc(O)cc12 [9-hydroxyellipticine]
IC50 (CDK1/cyclin B): 1 µM

O=C1CCCO1 [γ-Butyrolactone]
IC50 (CDK1/cyclin B): 0.6 µM

Indirubin-3′-monoxime
Percent inhibition of HCMV infectious yields (Human Cytomegalovirus; 3.3 μM, harvested 96 hrs): 56.69% | Percent inhibition of HCMV infectious yields (Human Cytomegalovirus; [5]): 99.9988% | Percent inhibition of HCMV infectious yields (Human Cytomegalovirus; 10 μM, harvested 96 hrs): 26.67% | Percent inhibition of HCMV infectious yields (Human Cytomegalovirus; 33 μM, harvested 96 hrs): 99.9976% | Percent inhibition of HCMV infectious yields (Human Cytomegalovirus; 100 μM, harvested 96 hrs): 99.9992% | IC50 (CDK1/cyclin B): 0.18 µM

CN1CC[C@H](c2c(O)cc(O)c3c(=O)cc(-c4ccccc4Cl)oc23)[C@H](O)C1 [Flavopiridol]
inhibition at 3.3 µM (Human Cytomegalovirus; [6]): 100% | inhibition at 10 µM (Human Cytomegalovirus; [7]): 100% | inhibition at 10 µM (Human Cytomegalovirus; [8]): 100% | inhibition at 33 µM (Human Cytomegalovirus; [9]): 100% | inhibition at 100 µM (Human Cytomegalovirus; [10]): 100%

O=C(O)CP(=O)(O)O [PAA, phosphonoacetic acid]
viral DNA replication (human lung fibroblasts): blocks viral DNA replication | cells in S, G2, or M phase (LU cells): about 57% | pp28 expression (HCMV [3]): could not be detected | Percent cells in phase G0/G1 ([4]; 0 hrs after treatment): 93.3 (1.2) % | Percent cells in phase G2/M ([4]; 0 hrs after treatment): 5.1 (1.0) % | Percent cells in phase S ([4]; 0 hrs after treatment): 1.6 (0.2) % | Percent cells in phase G0/G1 ([4]; 24 hrs): 97.2 (0.4) % | Percent cells in phase G2/M ([4]; 24 hrs): 1.9 (0.3) % | Percent cells in phase S ([4]; 24 hrs): 0.9 (0.1) % | Percent cells in phase G0/G1 ([4]; 48 hrs): 97.1 (0.8) % | Percent cells in phase G2/M ([4]; 48 hrs): 1.3 (0.4) % | Percent cells in phase S ([4]; 48 hrs): 1.5 (0.4) % | Percent cells in phase G0/G1 ([4]; 72 hrs): 97.2 (0.3) % | Percent cells in phase G2/M ([4]; 72 hrs): 0.9 (0.1) % | Percent cells in phase S ([4]; 72 hrs): 1.9 (0.3) % | DNA content of LU cells after HCMV infection in the presence of PAA ([4]; subconfluent cells): no detectable increase in DNA content

O=C1Cc2c([nH]c3ccc([N+](=O)[O-])cc23)-c2ccccc2N1 [Alsterpaullone]
inhibition at 3.3 µM (Human Cytomegalovirus; [11]): 100% | inhibition at 10 µM (Human Cytomegalovirus; [12]): 100% | inhibition at 10 µM (Human Cytomegalovirus; [13]): 100% | inhibition at 33 µM (Human Cytomegalovirus; [14]): 100% | inhibition at 100 µM (Human Cytomegalovirus; [15]): 100%
